Reference: patent publication US8785486B2, “Imidazo[1,2-A]pyridine derivatives and their use as positive allosteric modulators of mGluR2 receptors” (Janssen Pharmaceuticals, Inc., priority 2007, dated 2014)

Columns and labels:
human mGluR2 receptor = molecular target: T1, human mGluR2 receptor (Homo sapiens, UniProt Q14416); assay: [35S]GTPγS binding assay (PAM assay) using membranes from cells transfected with the human mGluR2 receptor; format: biochemical; conditions: membranes of CHO cells with human mGluR2, glutamate at predetermined EC25 concentration, averages of duplicate values of 11-concentration response curves; for EC50: read-out: GTPγS - hR2 PAM pEC50 (converted)
T1 construct: expressed in transfected cells; host or cells: CHO cells
T1 sequence (Q14416 19-872): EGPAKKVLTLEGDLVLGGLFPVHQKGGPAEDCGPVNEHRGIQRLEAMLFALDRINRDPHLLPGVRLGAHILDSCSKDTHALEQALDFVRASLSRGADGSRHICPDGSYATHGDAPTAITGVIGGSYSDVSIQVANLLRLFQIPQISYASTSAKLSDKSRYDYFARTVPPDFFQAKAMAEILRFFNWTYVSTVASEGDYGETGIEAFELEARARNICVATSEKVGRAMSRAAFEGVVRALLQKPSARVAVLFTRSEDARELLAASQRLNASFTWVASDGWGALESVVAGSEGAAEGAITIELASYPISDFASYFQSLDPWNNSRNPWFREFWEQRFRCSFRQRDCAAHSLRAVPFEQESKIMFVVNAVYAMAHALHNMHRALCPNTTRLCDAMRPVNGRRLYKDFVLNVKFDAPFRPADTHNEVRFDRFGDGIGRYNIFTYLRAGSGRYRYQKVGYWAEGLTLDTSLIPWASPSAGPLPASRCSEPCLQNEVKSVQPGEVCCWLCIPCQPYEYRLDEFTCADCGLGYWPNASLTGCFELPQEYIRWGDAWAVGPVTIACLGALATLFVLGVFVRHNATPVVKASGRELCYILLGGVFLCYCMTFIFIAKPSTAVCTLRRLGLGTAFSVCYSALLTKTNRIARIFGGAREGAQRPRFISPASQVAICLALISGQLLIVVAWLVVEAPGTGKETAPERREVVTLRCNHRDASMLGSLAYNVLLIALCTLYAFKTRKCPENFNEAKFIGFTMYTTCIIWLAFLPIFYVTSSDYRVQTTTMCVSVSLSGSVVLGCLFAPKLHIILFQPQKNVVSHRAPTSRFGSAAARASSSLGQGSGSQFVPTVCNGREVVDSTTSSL
Procedure: The [^35S]GTPγS binding assay is a functional membrane-based assay used to study G-protein coupled receptor (GPCR) function whereby incorporation of a non-hydrolysable form of GTP, [^35S]GTPγS (guanosine 5′-triphosphate, labelled with […] ^35S), is measured.
CHO-cells were cultured to pre-confluence and stimulated with 5 mM butyrate for 24 hours, prior to washing in PBS, and then collection by scraping in homogenisation buffer (50 mM Tris-HCl buffer, pH 7.4, 4° C.). Cell lysates were homogenized briefly (15 s) using an ultra-turrax homogenizer. The homogenate was centrifuged at 23 500×g for 10 minutes and the supernatant discarded. The pellet was resuspended in 5 mM Tris-HCl, pH 7.4 and centrifuged again (30 000×g, 20 min, 4° C.). The final pellet was resuspended in 50 mM HEPES, pH 7.4 and stored at −80° C. in appropriate aliquots before use. Protein concentration was determined by the Bradford method (Bio-Rad, USA) with bovine serum albumin as standard.
Measurement of mGluR2 positive allosteric modulatory activity of test compounds in membranes containing human mGluR2 was performed using frozen membranes that were thawed and briefly homogenised prior to pre-incubation in 96-well microplates (15 μg/assay well, 30 minutes, 30° C.) in assay buffer (50 mM HEPES pH 7.4, 100 mM NaCl, 3 mM MgCl2, 50 μM GDP, 10 μg/ml saponin,) with increasing concentrations of positive allosteric modulator (from 0.3 nM to 50 μM) and either a minimal pre-determined concentration of glutamate (PAM assay), or no added glutamate. […] After addition of [^35S]GTPγS (0.1 nM, f.c.) to achieve a total reaction volume of 200 μl, microplates were shaken briefly and further incubated to allow [^35S]GTPγS incorporation on activation (30 minutes, 30° C.). The reaction was stopped by rapid vacuum filtration over glass-fibre filter plates (Unifilter 96-well GF/B filter plates, Perkin-Elmer, Downers Grove, USA) microplate using a 96-well plate cell harvester (Filtermate, Perkin-Elmer, USA), and then by washing three times with 300 μl of ice-cold wash buffer (Na2PO4.2H2O 10 mM, NaH2PO4.H2O 10 mM, pH=7.4). Filters were then air-dried, and 40 μl of liquid scintillation cocktail (Microscint-O) was added to each well, and membrane-bound [^35S]GTPγS was measured in a 96-well scintillation plate reader (Top-Count, Perkin-Elmer, USA). Non-specific [^35S]GTPγS binding is determined in the presence of cold 10 μM GTP. Each curve was performed at least once using duplicate sample per data point and at 11 concentrations.
The concentration-response curves of representative compounds of the present invention in the presence of added EC25 of mGluR2 agonist glutamate to determine positive allosteric modulation (PAM), were generated using the Prism GraphPad software (Graph Pad Inc, San Diego, USA). The curves were fitted to a four-parameter logistic equation (Y=Bottom+(Top-Bottom)/(1+10^((Log EC50−X)*Hill Slope) allowing determination of EC50 values. The EC50 is the concentration of a compound that causes a half-maximal potentiation of the glutamate response. This is calculated by subtracting the maximal responses of glutamate in presence of a fully saturating concentration of a positive allosteric modulator from the response of glutamate in absence of a positive allosteric modulator. The concentration producing the half-maximal effect is then calculated as EC50

SMILES: Fc1ccc(N2CCN(Cc3ccn4c(CC(F)(F)F)cnc4c3Cl)CC2)c(F)c1 [Example 37]
- EC50 (human mGluR2 receptor): 3020 nM
- melting point: 156.9 °C

SMILES: N#Cc1c(CN2CCC(F)(c3ccccc3)CC2)ccn2c(CC(F)(F)F)cnc12 [Example 40]
- EC50 (human mGluR2 receptor): 1290 nM
- melting point: 145 °C

SMILES: Fc1ccccc1C1CCN(Cc2ccn3c(CC(F)(F)F)cnc3c2Cl)CC1 [Example 41]
- EC50 (human mGluR2 receptor): 437 nM
- melting point: 161.1 °C

SMILES: N#Cc1c(CN2CCC(c3ccccc3F)CC2)ccn2c(CC(F)(F)F)cnc12 [Example 44]
- EC50 (human mGluR2 receptor): 324 nM
- melting point: 152 °C

SMILES: Fc1ccccc1N1CCN(Cc2ccn3c(CC(F)(F)F)cnc3c2Cl)CC1 [Example 46]
- EC50 (human mGluR2 receptor): 1740 nM
- melting point: 150.2 °C

SMILES: N#Cc1c(N2CCC(c3ccccc3)CC2)ccn2c(-c3ccc(F)cc3F)cnc12 [Example 47]
- EC50 (human mGluR2 receptor): 229 nM
- melting point: 267 °C

SMILES: N#Cc1c(N2CCC(c3ccccc3)CC2)ccn2c(CCC3CC3)cnc12 [Example 48]
- EC50 (human mGluR2 receptor): 93.3 nM
- melting point: 145.4 °C

SMILES: FC(F)(F)Cc1cnc2c(Cl)c(N3CCC(F)(c4ccccc4)CC3)ccn12 [Example 50, 8-Chloro-7-(4-fluoro-4-phenyl-piperidin-1-yl)-3-(2,2,2-trifluoro-ethyl)-imidazo[1,2-a]pyridine]
- EC50 (human mGluR2 receptor): 195 nM
- melting point: 220.7 °C

SMILES: FC(F)(F)Cc1cnc2c(Cl)c(N3CCC(c4ccccc4)CC3)ccn12 [Example 51, 8-Chloro-7-(4-phenyl-piperidin-1-yl)-3-(2,2,2-trifluoro-ethyl)-imidazo[1,2-a]pyridine]
- EC50 (human mGluR2 receptor): 158 nM
- melting point: 263.1 °C

SMILES: CC(C)(O)c1ccc(C2CCN(c3ccn4c(CC(F)(F)F)cnc4c3C#N)CC2)cc1 [Example 54]
- EC50 (human mGluR2 receptor): 240 nM
- melting point: 155.4 °C

SMILES: N#Cc1c(N2CCC3(CC2)OCc2ccccc23)ccn2c(CC(F)(F)F)cnc12 [Example 58]
- EC50 (human mGluR2 receptor): 97.7 nM
- melting point: 212.9 °C

SMILES: N#Cc1c(N2CCC(O)(c3ccccc3F)CC2)ccn2c(CC(F)(F)F)cnc12 [Example 62]
- EC50 (human mGluR2 receptor): 166 nM
- melting point: 289.8 °C

SMILES: CC(C)(O)c1ccc(C2CCN(c3ccn4c(CC(F)(F)F)cnc4c3Cl)CC2)cc1 [Example 63]
- EC50 (human mGluR2 receptor): 389 nM
- melting point: 189.3 °C

SMILES: Cc1c(N2CCC(c3ccccc3)CC2)ccn2c(CC(F)(F)F)cnc12 [Example 64]
- EC50 (human mGluR2 receptor): 1550 nM
- melting point: 213.9 °C

SMILES: CC(C)(O)c1ccccc1C1CCN(c2ccn3c(CC(F)(F)F)cnc3c2Cl)CC1 [Example 65, 2-(2-{1-[8-Chloro-3-(2,2,2-trifluoro-ethyl)-imidazo[1,2-a]pyridin-7-yl]-piperidin-4-yl}-phenyl)-propan-2-ol]
- EC50 (human mGluR2 receptor): 178 nM
- melting point: 234.7 °C

SMILES: FC(F)(F)Cc1cnc2c(Cl)c(N3CCC4(CC3)OCc3ccccc34)ccn12 [Example 66]
- EC50 (human mGluR2 receptor): 282 nM
- melting point: 174.4 °C

SMILES: CC(C)(O)c1ccccc1C1CCN(c2ccn3c(CC(F)(F)F)cnc3c2C#N)CC1 [Example 67, 7-{4-[2-(1-Hydroxy-1-methyl-ethyl)-phenyl]-piperidin-1-yl}-3-(2,2,2-trifluoro-ethyl)-imidazo[1,2-a]pyridine-8-carbonitrile]
- EC50 (human mGluR2 receptor): 145 nM
- melting point: 227.5 °C

SMILES: N#Cc1c(N2CCC(F)(c3ccccc3)CC2)ccn2c(CC(F)(F)F)cnc12 [Example 68, 7-(4-Fluoro-4-phenyl-piperidin-1-yl)-3-(2,2,2-trifluoro-ethyl)-imidazo[1,2-a]pyridine-8-carbonitrile]
- EC50 (human mGluR2 receptor): 93.3 nM
- melting point: 214 °C

SMILES: N#Cc1c(-c2ccc(Sc3ccccc3)cc2)ccn2c(CC(F)(F)F)cnc12 [Example 71]
- EC50 (human mGluR2 receptor): 182 nM
- melting point: 195.6 °C

SMILES: Cc1cc(Oc2ccc(-c3ccn4c(CCCC(F)(F)F)cnc4c3C#N)cc2F)ccn1 [Example 73]
- EC50 (human mGluR2 receptor): 1050 nM
- melting point: 234.1 °C

SMILES: N#Cc1c(-c2ccc(Oc3ccc(F)cc3)cc2)ccn2c(CC(F)(F)F)cnc12 [Example 74]
- EC50 (human mGluR2 receptor): 170 nM
- melting point: 163 °C

SMILES: Cc1cc(Oc2ccc(-c3ccn4c(CCC5CC5)cnc4c3C#N)cc2F)ccn1 [Example 75]
- EC50 (human mGluR2 receptor): 372 nM
- melting point: 277.2 °C

SMILES: N#Cc1c(-c2ccc(Oc3ccccc3F)cc2)ccn2c(CC(F)(F)F)cnc12 [Example 77]
- EC50 (human mGluR2 receptor): 105 nM
- melting point: 177.9 °C

SMILES: N#Cc1c(-c2ccc(Oc3cccc(F)c3)cc2)ccn2c(CC(F)(F)F)cnc12 [Example 78]
- EC50 (human mGluR2 receptor): 219 nM
- melting point: 176 °C

SMILES: N#Cc1c(-c2ccc(C(F)c3ccccc3)cc2)ccn2c(CC(F)(F)F)cnc12 (stereo not shown) [Example 79]
- EC50 (human mGluR2 receptor): 257 nM
- melting point: 173.4 °C

SMILES: N#Cc1c(-c2ccc(Oc3ccccc3)cc2)ccn2c(CC(F)(F)F)cnc12 [Example 80]
- GTPγS - hR2 PAM pEC50 (human mGluR2 receptor): 6.73
- melting point: 174.3 °C

SMILES: CC(O)(c1ccccc1)c1ccc(-c2ccn3c(CC(F)(F)F)cnc3c2C#N)cc1 (stereo not shown) [Example 81]
- EC50 (human mGluR2 receptor): 525 nM
- melting point: 102.7 °C

SMILES: CC(C)(O)c1ccc(Oc2ccc(-c3ccn4c(CC(F)(F)F)cnc4c3C#N)cc2)cc1 [Example 82]
- EC50 (human mGluR2 receptor): 44.7 nM
- melting point: 143.2 °C

SMILES: C[C@]1(O)CC[C@@H](Nc2ccc(-c3ccn4c(CC(F)(F)F)cnc4c3C#N)cc2Cl)CC1 [Example 89]
- EC50 (human mGluR2 receptor): 275 nM
- melting point: 161.6 °C

SMILES: N#Cc1c(-c2ccc(N[C@H]3CC[C@H](O)CC3)cc2)ccn2c(CC(F)(F)F)cnc12 [Example 91, 7-[4-(4-hydroxy-cyclohexylamino)-phenyl]-3-(2,2,2-trifluoro-ethyl)-imidazo[1,2-a]pyridine-8-carbonitrile]
- EC50 (human mGluR2 receptor): 1120 nM
- melting point: 137.5 °C

SMILES: N#Cc1c(-c2ccc(NC3CCOCC3)c(Cl)c2)ccn2c(CC(F)(F)F)cnc12 [Example 92]
- GTPγS - hR2 PAM pEC50 (human mGluR2 receptor): 6.15
- melting point: 230.7 °C

SMILES: C[C@]1(O)CC[C@H](Nc2ccc(-c3ccn4c(CC(F)(F)F)cnc4c3C#N)cc2Cl)CC1 [Example 94]
- EC50 (human mGluR2 receptor): 174 nM
- melting point: 202.6 °C

SMILES: N#Cc1c(-c2ccc(N[C@H]3CC[C@H](O)CC3)c(Cl)c2)ccn2c(CC(F)(F)F)cnc12 [Example 96, (trans)-7-[3-Chloro-4-(4-hydroxy-cyclohexylamino)-phenyl]-3-(2,2,2-trifluoro-ethyl)-imidazo[1,2-a]pyridine-8-carbonitrile]
- EC50 (human mGluR2 receptor): 295 nM
- melting point: 123.7 °C

SMILES: FC(F)(F)Cc1cnc2c(Cl)c(-c3ccc(NC4CCOCC4)c(Cl)c3)ccn12 [Example 99]
- EC50 (human mGluR2 receptor): 631 nM
- melting point: 149.7 °C

SMILES: C[C@]1(O)CC[C@H](Nc2ccc(-c3ccn4c(CC(F)(F)F)cnc4c3Cl)cc2Cl)CC1 [Example 100, (trans)-4-{2-Chloro-4-[8-chloro-3-(2,2,2-trifluoro-ethyl)-imidazo[1,2-a]pyridin-7-yl]-phenylamino}-1-methyl-cyclohexanol]
- EC50 (human mGluR2 receptor): 126 nM
- melting point: 205.1 °C

SMILES: O[C@H]1CC[C@H](Nc2ccc(-c3ccn4c(CC(F)(F)F)cnc4c3Cl)cc2Cl)CC1 [Example 101, 4-{2-Chloro-4-[8-chloro-3-(2,2,2-trifluoro-ethyl)-imidazo[1,2-a]pyridin-7-yl]phenylamino}-cyclohexanol]
- EC50 (human mGluR2 receptor): 155 nM
- melting point: 183.1 °C

SMILES: N#Cc1c(-c2ccc(O[C@H]3CC[C@@H](O)CC3)c(Cl)c2)ccn2c(CC(F)(F)F)cnc12 [Example 103]
- EC50 (human mGluR2 receptor): 933 nM
- melting point: 210.2 °C

SMILES: CC(C)(O)C1CCN(c2ccc(-c3ccn4c(CC(F)(F)F)cnc4c3C#N)cc2)CC1 [Example 112]
- EC50 (human mGluR2 receptor): 676 nM
- melting point: 174 °C
